Tested on: HCV replicon cells
Assay: Cell-based HCV Replicon Assay
Details: Hepatitis C virus, 72 h; HCV replicon RNA level by real time PCR (Taqman), cells harvested on day 3; EC90 = concentration to achieve ΔCT=3.2 over baseline
Protocol: Assays Cell-based HCV Replicon Assay
To measure cell-based anti-HCV activity of the compounds of the present invention, replicon cells were seeded at 5000 cells/well in 96-well collagen I-coated Nunc plates in the presence of the compound of the invention. […] The final concentration of DMSO was 0.5%, fetal bovine serum was 10%, in the assay media. […] The replicon RNA level was measured using real time PCR (Taqman assay). The amplicon was located in 5B. […] GAPDH RNA was used as endogenous control and was amplified in the same reaction as NS5B (multiplex PCR) using primers and VIC-labeled probe recommended by the manufacturer (PE Applied Biosystem). The real-time RT-PCR reactions were run on ABI PRISM 7900HT Sequence Detection System using the following program: 48° C. for 30 min, 95° C. for 10 min, 40 cycles of 95° C. for 15 sec, 60° C. for 1 min. The ΔCT values (CT5B-CTGAPDH) were plotted against the concentration of test compound and fitted to the sigmoid dose-response model using GraphPad PRISM software. EC50 was defined as the concentration of inhibitor necessary to achieve ΔCT=1 over the projected baseline; EC90 the concentration necessary to achieve ΔCT=3.2 over the baseline. Alternatively, to quantitate the absolute amount of replicon RNA, a standard curve was established by including serially diluted T7 transcripts of replicon RNA in the Taqman assay. All Taqman reagents were from PE Applied Biosystems. Such an assay procedure was described in detail in e.g. Malcolm et al., Antimicrobial Agents and Chemotherapy 50: 1013-1020 (2006).

SMILES: Nc1nc(Cl)c(/C=C/c2ccc(F)c(F)c2)c(N[C@@H]2C[C@H](CO)[C@@H](O)[C@H]2O)n1 [compound 6]
- EC90: ≤ 5 µM

SMILES: Cc1ccccc1/C=C/c1c(Cl)nc(N)nc1N[C@@H]1C[C@H](CO)[C@@H](O)[C@H]1O [compound 13]
- EC90: > 5 µM

SMILES: Nc1nc(Cl)c(/C=C/c2ccccc2Cl)c(N[C@H]2C=C[C@@H](CO)C2)n1 [compound 17]
- EC90: > 5 µM

SMILES: Nc1nc(Cl)c(/C=C/c2cccc(Oc3ccccc3)c2)c(N[C@@H]2C[C@H](CO)[C@@H](O)[C@H]2O)n1 [compound 10]
- EC90: ≤ 5 µM

SMILES: CSc1nc(N)nc(N[C@@H]2C[C@H](CO)[C@@H](O)[C@H]2O)c1/C=C/c1ccccc1 [compound 16]
- EC90: > 5 µM

SMILES: Nc1nc(Cl)c(/C=C/c2cccc(F)c2F)c(N[C@@H]2C[C@H](CO)[C@@H](O)[C@H]2O)n1 [compound 9]
- EC90: ≤ 5 µM

SMILES: Nc1nc(Cl)c(/C=C/c2ccccc2F)c(N[C@@H]2C[C@H](CO)[C@@H](O)C2)n1 [compound 15]
- EC90: > 5 µM

SMILES: Nc1nc(Cl)c(/C=C/c2cc(F)cc(F)c2)c(N[C@@H]2C[C@H](CO)[C@@H](O)[C@H]2O)n1 [compound 4]
- EC90: ≤ 5 µM

Reference: patent US8715638B2, “Ethenyl-substituted pyridine and pyrimidine derivatives and their use in treating viral infections” (Merck Sharp & Dohme Corp., priority 2008, dated 2014)
